Test results reported in publication PMC4722623, “Novel c-Met inhibitor suppresses the growth of c-Met-addicted gastric cancer cells” (BMC Cancer, 2016).

Key:
c-Met [1] = molecular target: T1, c-Met (Homo sapiens, UniProt P08581); assay: biochemical; details: read-out: IC50 (nM) in c-Met enzyme assay
T1 construct: recombinant kinase domain of c-Met

c-Met [2] = molecular target: T1, c-Met; assay: HTRF c-Met kinase assay; also radiometric kinase panel (Met activity -2 at […]); type: biochemical; details: read-out: IC50 (nM) in c-Met enzyme assay

T1 sequence (P08581 956-1390 limits assumed): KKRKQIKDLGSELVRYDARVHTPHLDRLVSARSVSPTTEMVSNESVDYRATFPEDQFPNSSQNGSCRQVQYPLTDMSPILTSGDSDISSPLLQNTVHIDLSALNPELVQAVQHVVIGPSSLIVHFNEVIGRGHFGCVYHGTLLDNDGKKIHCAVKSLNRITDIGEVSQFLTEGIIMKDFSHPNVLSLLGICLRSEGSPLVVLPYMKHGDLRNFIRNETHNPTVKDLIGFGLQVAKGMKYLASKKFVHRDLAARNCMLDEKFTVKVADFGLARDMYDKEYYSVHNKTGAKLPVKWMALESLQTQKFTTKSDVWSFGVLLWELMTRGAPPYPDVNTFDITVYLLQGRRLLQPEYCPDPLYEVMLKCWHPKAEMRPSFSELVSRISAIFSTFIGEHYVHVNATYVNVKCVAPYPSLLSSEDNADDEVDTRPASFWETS

IC50 (c-Met [1]) [nM]	IC50 (c-Met [2]) [nM]	SMILES
6.3	–	Cn1cc(-c2cnc3nnn(CC4CNc5ncccc5O4)c3n2)c2ccccc21 (centres unmarked) [KRC-00509]
–	9	FC(F)(F)c1cc(-c2cnc3nnn(CC4CNc5ncccc5O4)c3n2)ccc1OCCN1CCOCC1 (centres unmarked) [KRC-00715]
